Data set [1] relates to Plasma. The experiment in a line: Anticoagulant activity in pooled human plasma assessed as prolongation of activated partial thromboplastin time at 12.5 uM incubated for 7 mins. It counts as functional, cell-free.
In the next data set the target is T1, Coagulation factor VII (Homo sapiens, UniProt P08709).
T1 sequence (P08709 whole entry): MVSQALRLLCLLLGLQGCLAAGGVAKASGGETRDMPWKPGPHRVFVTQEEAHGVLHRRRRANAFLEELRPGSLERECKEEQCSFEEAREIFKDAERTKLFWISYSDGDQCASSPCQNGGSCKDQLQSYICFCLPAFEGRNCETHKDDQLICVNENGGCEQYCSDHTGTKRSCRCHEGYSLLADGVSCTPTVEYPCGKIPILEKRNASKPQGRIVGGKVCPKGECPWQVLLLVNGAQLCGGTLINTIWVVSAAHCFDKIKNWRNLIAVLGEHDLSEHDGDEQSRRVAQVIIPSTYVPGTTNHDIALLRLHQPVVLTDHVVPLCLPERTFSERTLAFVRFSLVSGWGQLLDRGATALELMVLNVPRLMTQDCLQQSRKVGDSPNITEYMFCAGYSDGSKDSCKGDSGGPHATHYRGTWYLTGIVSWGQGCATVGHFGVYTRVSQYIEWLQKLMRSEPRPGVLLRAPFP
The experiment in a line: Inhibition of factor 7a (unknown origin).

Data set [2] in a line: Stability in pooled human plasma measured upto 24 hrs by UPLC-MS analysis. It counts as ADME, cell-free.
Data set [3] addresses T2, Coagulation factor XII (Homo sapiens, UniProt P00748).
T2 sequence (P00748 whole entry): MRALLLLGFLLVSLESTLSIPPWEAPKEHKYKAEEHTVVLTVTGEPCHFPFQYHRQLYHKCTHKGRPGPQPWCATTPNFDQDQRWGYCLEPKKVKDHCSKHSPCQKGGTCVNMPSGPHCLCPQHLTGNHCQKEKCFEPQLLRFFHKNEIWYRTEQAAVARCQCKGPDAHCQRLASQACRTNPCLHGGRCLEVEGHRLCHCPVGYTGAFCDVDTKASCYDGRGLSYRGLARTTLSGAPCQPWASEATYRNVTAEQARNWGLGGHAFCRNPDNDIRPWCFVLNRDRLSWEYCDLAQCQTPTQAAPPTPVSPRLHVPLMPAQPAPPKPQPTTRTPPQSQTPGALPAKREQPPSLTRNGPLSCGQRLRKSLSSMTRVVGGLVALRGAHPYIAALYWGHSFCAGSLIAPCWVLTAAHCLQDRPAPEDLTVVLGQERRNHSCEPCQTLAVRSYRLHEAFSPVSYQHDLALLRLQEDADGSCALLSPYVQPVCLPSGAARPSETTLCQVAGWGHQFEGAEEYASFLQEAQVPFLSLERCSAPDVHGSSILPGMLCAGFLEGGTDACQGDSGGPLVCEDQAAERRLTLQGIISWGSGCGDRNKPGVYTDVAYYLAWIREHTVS
Briefly: Inhibition of human factor 12a using H-D-Pro-Phe-Arg-p-nitroanilide as chromogenic substrate assessed as liberation of p-nitroaniline measured every 5 mins for 60 min by multimode plate reader analysis.

For data set [4], the system named is Plasma. Briefly: Anticoagulant activity in pooled human plasma assessed as prolongation of prothrombin time at 12.5 uM incubated for 7 mins. It counts as functional, cell-free.
In data set [5] the test system is Plasma. The experiment in a line: Anticoagulant activity in FXII-deficient human plasma assessed as effect on total thrombin generation using Z-GGR-AMC as fluorogenic substrate at 8 uM by calibrated automated thrombogram analysis. The format is functional, cell-free.
Data set [6] concerns Plasma. The experiment in a line: Anticoagulant activity in pooled human plasma assessed as reduction in ellagic acid induced thrombin generation using Z-GGR-AMC as fluorogenic substrate at 4 uM by calibrated automated thrombogram analysis. It counts as functional, cell-free.
Data set [7] concerns the target Urokinase-type plasminogen activator (Homo sapiens, UniProt P00749). The experiment in a line: Inhibition of Urokinase-type plasminogen activator (unknown origin).
Data set [8] deals with Plasma. The experiment in a line: Anticoagulant activity in pooled human plasma assessed as reduction in ellagic acid induced thrombin generation using Z-GGR-AMC as fluorogenic substrate by calibrated automated thrombogram analysis. The format is functional, cell-free.
Data set [9] concerns Plasma. The experiment in a line: Anticoagulant activity in pooled human plasma assessed as prolongation of activated partial thromboplastin time at 1.25 uM incubated for 7 mins. It counts as functional, cell-free.
The next data set concerns the target Coagulation factor X (Homo sapiens, UniProt P00742). Briefly: Inhibition of human factor 10a using methoxycarbonyl-D-Nle-Gly-Arg-pNA as substrate measured after 60 mins by microplate reader analysis.
Data set [10] deals with T3, Coagulation factor XII (Homo sapiens) (UniProt P00748).
T3 sequence (whole entry): T2 sequence (P00748 whole entry)
Briefly: Inhibition of human factor 12a activation in citrated pooled human plasma assessed as inhibition of bradykinin release incubated for 10 mins followed by kaolin addition and measured after 15 mins by ELISA. It counts as cell-free. As to conditions: dose 1-200 µM, time 25.0 min. In general terms: An ELISA detects its analyte on a solid surface through an enzyme-linked reagent.

A further data set has as its target Plasminogen (Homo sapiens, UniProt P00747). The experiment in a line: Inhibition of plasmin (unknown origin).
The next data set addresses Plasma kallikrein (Homo sapiens, UniProt P03952). Briefly: Inhibition of plasma kallikrein (unknown origin). The format is cell-free.
A further data set deals with Trypsin (Homo sapiens, UniProt P07477+P07478+P35030). Briefly: Inhibition of trypsin (unknown origin). The format is protein assay.
Another data set is filed under the species Homo sapiens. The experiment in a line: Selectivity index, ratio of IC50 for inhibition of human factor 12a using H-D-Pro-Phe-Arg-p-nitroanilide as chromogenic substrate to IC50 for inhibition of human factor 10a using methoxycarbonyl-D-Nle-Gly-Arg-pNA as substrate.
For data set [11], the target named is T2, Coagulation factor XII. Briefly: Inhibition of human factor 12a using H-D-Pro-Phe-Arg-p-nitroanilide as chromogenic substrate assessed as liberation of p-nitroaniline in presence of BSA measured every 5 mins for 60 min by multimode plate reader analysis.
Data set [12] deals with T3, Coagulation factor XII (Homo sapiens). The experiment in a line: Inhibition of human factor 12a using H-D-Pro-Phe-Arg-p-nitroanilide as chromogenic substrate assessed as liberation of p-nitroaniline at […] measured every 5 mins for 60 min by multimode plate reader analysis.
For data set [13] the target is unchanged. The experiment in a line: Inhibition of human factor 12a using H-D-Pro-Phe-Arg-p-nitroanilide as chromogenic substrate assessed as liberation of p-nitroaniline at 2 mM measured every 5 mins for 60 min by multimode plate reader analysis.

Active and inactive are the calls of the source. The calls are words filed in the database; no cut-off is given here. Where a SMILES comes first, the peptide text is derived from it. Bridges are numbered along the chain shown (N, C = ends).

Chain of Coagulation factor X (P00742 41-179 limits assumed): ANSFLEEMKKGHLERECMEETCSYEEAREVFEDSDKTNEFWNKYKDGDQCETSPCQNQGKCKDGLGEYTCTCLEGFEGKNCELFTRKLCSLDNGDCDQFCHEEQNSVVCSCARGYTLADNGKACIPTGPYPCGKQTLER
Chain of Coagulation factor X (P00742 235-488 limits assumed): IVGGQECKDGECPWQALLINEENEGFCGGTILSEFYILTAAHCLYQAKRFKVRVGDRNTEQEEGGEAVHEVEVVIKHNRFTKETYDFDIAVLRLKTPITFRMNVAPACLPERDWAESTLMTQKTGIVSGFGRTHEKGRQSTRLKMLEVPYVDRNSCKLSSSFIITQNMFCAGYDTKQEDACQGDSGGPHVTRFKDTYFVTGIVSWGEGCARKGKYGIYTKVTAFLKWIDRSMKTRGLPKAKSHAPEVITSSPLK
Chain of Plasma kallikrein (P03952 20-390 limits assumed): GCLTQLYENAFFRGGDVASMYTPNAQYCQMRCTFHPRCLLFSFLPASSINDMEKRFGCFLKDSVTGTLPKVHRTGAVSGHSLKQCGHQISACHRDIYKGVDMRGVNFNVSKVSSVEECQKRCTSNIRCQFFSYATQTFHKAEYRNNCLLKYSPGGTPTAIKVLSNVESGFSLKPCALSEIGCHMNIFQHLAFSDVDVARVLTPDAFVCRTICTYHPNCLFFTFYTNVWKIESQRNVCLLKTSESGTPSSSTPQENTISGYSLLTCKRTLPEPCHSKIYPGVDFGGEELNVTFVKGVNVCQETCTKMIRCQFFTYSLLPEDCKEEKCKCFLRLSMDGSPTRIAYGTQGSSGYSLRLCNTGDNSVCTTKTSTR
Chain of Plasma kallikrein (P03952 391-638 limits assumed): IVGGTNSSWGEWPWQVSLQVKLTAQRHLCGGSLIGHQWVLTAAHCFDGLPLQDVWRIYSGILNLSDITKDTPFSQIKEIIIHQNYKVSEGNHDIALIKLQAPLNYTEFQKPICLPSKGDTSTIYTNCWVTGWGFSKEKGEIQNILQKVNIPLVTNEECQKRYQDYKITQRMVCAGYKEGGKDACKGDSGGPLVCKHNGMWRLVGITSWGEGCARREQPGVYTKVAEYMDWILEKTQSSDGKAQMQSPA
Chain of Plasminogen (P00747 97-580 limits assumed): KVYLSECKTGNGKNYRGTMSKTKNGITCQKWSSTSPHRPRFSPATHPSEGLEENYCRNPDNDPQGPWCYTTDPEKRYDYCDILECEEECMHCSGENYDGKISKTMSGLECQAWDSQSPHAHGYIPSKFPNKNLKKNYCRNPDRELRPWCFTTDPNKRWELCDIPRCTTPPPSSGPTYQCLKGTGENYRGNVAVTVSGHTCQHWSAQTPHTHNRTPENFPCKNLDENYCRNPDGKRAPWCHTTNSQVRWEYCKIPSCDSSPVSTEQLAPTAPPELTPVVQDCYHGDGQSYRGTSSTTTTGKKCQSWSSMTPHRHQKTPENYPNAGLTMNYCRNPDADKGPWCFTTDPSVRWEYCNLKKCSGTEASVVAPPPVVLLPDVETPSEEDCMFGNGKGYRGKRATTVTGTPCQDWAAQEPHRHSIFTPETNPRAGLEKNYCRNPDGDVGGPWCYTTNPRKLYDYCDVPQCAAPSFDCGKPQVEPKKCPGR
Chain of Plasminogen (P00747 581-810 limits assumed): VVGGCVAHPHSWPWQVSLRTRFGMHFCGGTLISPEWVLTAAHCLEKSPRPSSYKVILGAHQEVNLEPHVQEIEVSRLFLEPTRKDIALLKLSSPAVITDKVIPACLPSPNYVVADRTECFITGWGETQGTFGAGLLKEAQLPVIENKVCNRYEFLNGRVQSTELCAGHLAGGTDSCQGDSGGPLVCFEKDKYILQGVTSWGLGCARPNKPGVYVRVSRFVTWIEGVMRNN

For `CC(C)C[C@@H]1NC(=O)[C@H](Cc2ccc(O)cc2)NC(=O)CSC[C@@H](C(N)=O)NC(=O)CNC(=O)CNC(=O)[C@H](CCCNC(=N)N)NC(=O)[C@H](CC(=O)O)NC(=O)[C@H](CCCCN)NC(=O)[C@@H]2CCCN2C(=O)[C@H](CCCNC(=N)N)NC(=O)[C@H](Cc2ccccc2)NC(=O)[C@H](CCCNC(=N)N)NC1=O`, the result in the data set on Plasma [1], in the data set with Plasma [4], in the data set on Plasma [6] and with Plasma [9] was Active. In addition, the half-inhibitory concentration (IC50) against Coagulation factor VII was over 100 µM; on Coagulation factor XII [3], 0.062 µM; in [7] it was over 100 µM; against Coagulation factor X, 59 µM; on Plasminogen it was over 100 µM; at Plasma kallikrein, over 100 µM. The results for the IC50 on Trypsin and at Coagulation factor XII [11] were over 31 µM and 0.061 µM, respectively. The Stability entry in data set [2] is listed as “Stable”. The result with Plasma [5] was inactive. For the same molecule, the 50% effective concentration (EC50) in the data set on Plasma [8] is 0.7 µM. Moreover, in [10], the inhibition entry is “Dose-Dependent Effect”. Besides, the Ratio IC50 in the data set filed under Homo sapiens turned out to be 100.

`CC(C)C[C@@H]1NC(=O)[C@H](Cc2ccc(O)cc2)NC(=O)CSC[C@@H](C(=O)N[C@@H](CCCNC(=N)N)C(=O)N[C@@H](CCCNC(=N)N)C(=O)N[C@@H](C)C(=O)N2CCC[C@H]2C(=O)N[C@@H](CC(N)=O)C(=O)N[C@@H](CO)C(N)=O)NC(=O)[C@H](CC(C)C)NC(=O)[C@H]([C@@H](C)O)NC(=O)[C@H](Cc2ccccc2)NC(=O)[C@H](CCCNC(=N)N)NC1=O` ({CH2CO}-YLRFTLCRRAPNS-NH2; thioether N-7): the result in the data set with Plasma [1] and in the data set on Plasma [4] was Active. Moreover, the half-inhibitory concentration (IC50) on Coagulation factor VII is over 100 µM; on Coagulation factor XII [3] it was 0.097 µM; in [7], over 100 µM; against Coagulation factor X, 35 µM; on Plasminogen, 61 µM; on Plasma kallikrein, 43 µM. The IC50 against Trypsin is 61 µM; at Coagulation factor XII [11], 0.157 µM. For the same molecule, in the data set with Plasma [8], the EC50 amounted to 1.4 µM. Also, in the data set filed under Homo sapiens, the Ratio IC50 turned out to be 100.

As to `CC(C)C[C@H](NC(=O)[C@H](C)NC(=O)[C@H](CO)NC(=O)[C@H](CCC(=O)O)NC(=O)[C@H](Cc1ccc(O)cc1)NC(=O)[C@H](CCCNC(=N)N)NC(=O)[C@@H]1CSCC(=O)N[C@@H](Cc2ccc(O)cc2)C(=O)N[C@@H](CC(C)C)C(=O)N[C@@H](CCCNC(=N)N)C(=O)N[C@@H](Cc2ccccc2)C(=O)N[C@@H]([C@@H](C)O)C(=O)N[C@@H](CC(C)C)C(=O)N1)C(=O)N[C@@H](CO)C(N)=O` ({CH2CO}-YLRFTLCRYESALS-NH2; thioether N-7), the values for the IC50 on Coagulation factor XII [3], at Coagulation factor X and on Coagulation factor XII [11] were 0.372 µM, 2.2 µM and 0.673 µM, respectively.

`CC(C)C[C@@H]1NC(=O)[C@H](Cc2ccc(O)cc2)NC(=O)CSC[C@@H](C(N)=O)NC(=O)CNC(=O)CNC(=O)[C@H](CCC(N)=O)NC(=O)[C@H](CC(N)=O)NC(=O)[C@H]([C@@H](C)O)NC(=O)[C@@H]2CCCN2C(=O)[C@H](CCCCN)NC(=O)[C@H](CC(C)C)NC(=O)[C@H](CCCNC(=N)N)NC1=O` ({CH2CO}-YLRLKPTNQGGC-NH2; thioether N-12): the result in the data set on Plasma [1] was Active. For the same molecule, the IC50 at Coagulation factor VII was over 100 µM; on Coagulation factor XII [3], 0.331 µM; in [7] it was over 100 µM; on Coagulation factor X, over 100 µM; on Plasminogen it was over 100 µM; at Plasma kallikrein, over 100 µM. Besides, the IC50 worked out at 12 µM against Trypsin and 0.611 µM at Coagulation factor XII [11]. For the same molecule, the Stability entry in data set [2] is given as “Stable”. For the same molecule, the result with Plasma [5] was inactive. In addition, the EC50 in the data set with Plasma [8] amounted to 2.8 µM. Further, the inhibition result in data set [10] is “Dose-Dependent Effect”.

In the case of `CC(C)C[C@@H]1NC(=O)[C@H](Cc2ccc(O)cc2)NC(=O)CSC[C@@H](C(N)=O)NC(=O)CNC(=O)CNC(=O)[C@H](CCCNC(=N)N)NC(=O)[C@H](CC(=O)O)NC(=O)[C@H](CCCCN)NC(=O)[C@@H]2CCCN2C(=O)[C@H](CCCNC(=N)N)NC(=O)[C@H](Cc2ccccc2)NC(=O)[C@@H](CCCNC(=N)N)NC1=O`, in data set [12], the inhibition result was “inactive”.

In the case of `CC[C@H](C)[C@@H]1NC(=O)[C@H](C)NC(=O)[C@H](CCCCN)NC(=O)[C@H](Cc2ccccc2)NC(=O)[C@H](CCCNC(=N)N)NC(=O)[C@H](CC(C)C)NC(=O)[C@H](Cc2ccc(O)cc2)NC(=O)CSC[C@@H](C(N)=O)NC(=O)CNC(=O)CNC(=O)[C@H](CC(C)C)NC(=O)[C@H](CO)NC1=O` ({CH2CO}-YLRFKAISLGGC-NH2; thioether N-12), the IC50 on Coagulation factor XII [3] came to 0.18 µM; on Coagulation factor X it was 41 µM.

Consider `CC[C@H](C)[C@@H]1NC(=O)[C@H](Cc2c[nH]cn2)NC(=O)[C@H](CCCCN)NC(=O)[C@H](Cc2ccccc2)NC(=O)[C@H](CCCNC(=N)N)NC(=O)[C@H](CC(C)C)NC(=O)[C@H](Cc2ccc(O)cc2)NC(=O)CSC[C@@H](C(N)=O)NC(=O)CNC(=O)CNC(=O)[C@H](CC(C)C)NC(=O)[C@H](CO)NC1=O` ({CH2CO}-YLRFKHISLGGC-NH2; thioether N-12), for which the outcome in the data set on Plasma [1] and in the data set on Plasma [4] was Active. Also, the IC50 on Coagulation factor XII [3] amounted to 0.234 µM; against Coagulation factor X, 17 µM; at Coagulation factor XII [11], 0.311 µM. For the same molecule, the result in the data set with Plasma [5] was inactive. In the data set with Plasma [8], the EC50 worked out at 3.2 µM. Moreover, in the data set filed under Homo sapiens, the Ratio IC50 was determined as 100.

As for `CC(C)C[C@@H]1NC(=O)[C@H](CCC(N)=O)NC(=O)[C@H](CCCNC(=N)N)NC(=O)[C@@H]2CSCCC(=O)N3CN(CN(C3)C(=O)CCSC[C@H](NC(=O)[C@@H](N)CCCNC(=N)N)C(=O)N[C@@H](Cc3ccccc3)C(=O)N[C@@H](CCCNC(=N)N)C(=O)N[C@@H](CC(C)C)C(=O)N3CCC[C@H]3C(=O)N2)C(=O)CCSC[C@@H](C(=O)N[C@@H](CCCNC(=N)N)C(=O)O)NC(=O)[C@H](CCCNC(=N)N)NC1=O`, the half-maximal inhibitory concentration (IC50) turned out to be 0.142 µM on Coagulation factor XII [3] and 0.173 µM on Coagulation factor XII [11].

For the molecule Ac-YLRFR-NH2, the inhibition result in data set [13] is “inactive”.

By IC50 is commonly meant the concentration that inhibits the measured activity by half. A word on the EC50: it is the concentration that produces a half-maximal response.

For the origin of these results see ChEMBL document CHEMBL5042477, “Potent Cyclic Peptide Inhibitors of FXIIa Discovered by mRNA Display with Genetic Code Reprogramming” (J Med Chem, 2021).
